Columns and labels:
Format in all cases: in vivo
[1] = system: Rhipicephalus (Boophilus) microplus larvae (strain Parkhurst, resistant against synthetic pyrethroids); experiment: Rhipicephalus (Boophilus) microplus in-vitro contact test, larval cattle tick; conditions: after 48 hours, read-out: efficacy (larvae dead or moribund); for pest or weed control at 1 µg/cm2, 100 g/ha: 1 μg/cm^2 (=100 g/ha); for pest or weed control at 5 µg/cm2, 500 g/ha: 5 μg/cm^2 (=500 g/ha)
Summary of the method: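 Pyrethroid-resistant larvae (strain Parkhurst), 20–50 per tube, exposed by contact to a dried acetone film of compound (5 μg/cm² at 900 ppm) for 48 h at 27 °C and 85% humidity. Percent dead or moribund larvae scored from negative geotactic behaviour.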

[2] = system: adult cat fleas (Ctenocephalides felis); experiment: Ctenocephalides felis in-vitro contact test, adult cat flea; conditions: after 48 hours, read-out: efficacy (fleas dead or moribund); for pest or weed control at 1 µg/cm2, 100 g/ha: 1 μg/cm^2 (=100 g/ha); for pest or weed control at 5 µg/cm2, 500 g/ha: 5 μg/cm^2 (=500 g/ha)
Summary of the method: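 Acetone solution coated onto glass tube walls; 900 ppm gives 5 μg/cm². Once dry, 5–10 adult fleas per tube held at room temperature for 48 h. Efficacy (%) is the share of fleas dead or moribund, i.e. unable to climb away on a 45–50° C heating plate.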

[3] = system: southern root-knot nematode (Meloidogyne incognita); experiment: Meloidogyne incognita test; conditions: 20 ppm, after 14 days
Protocol: Meloidogyne incognita—Test
Solvent: 125.0 parts by weight of acetone
To produce a suitable preparation of active compound, 1 part by weight of active compound is mixed with the stated amount of solvent, and the concentrate is diluted with water to the desired concentration.
Vessels are filled with sand, a solution of the active ingredient, a suspension containing eggs and larvae of the southern root-knot nematode (Meloidogyne incognita) and salad seeds. The salad seeds germinate and the seedlings grow. Galls develop in the roots.
After 14 days the nematicidal activity is determined based on the percentage of gall formation. 100% means no galls were found and 0% means the number of galls found on the roots of the treated plants was equal to that in untreated control plants.

[4] = system: larvae of the banded cucumber beetle (Diabrotica balteata); experiment: Diabrotica balteata spray test; conditions: 168 h, after 7 days, read-out: efficacy (seedling growth); for pest or weed control at 32 µg/disc, 100 g/ha: 100 g/ha (=32 μg/well); for pest or weed control at 6.4 µg/disc, 20 g/ha: 20 g/ha (=6.4 μg/well)
Summary of the method: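 Efficacy was read 7 days after infesting each unit with 10–20 banded cucumber beetle larvae, as % of seedlings growing like untreated, uninfested controls. Before infestation, wheat seeds germinated 1 day on agar (5 per well) were sprayed with the active ingredient. The active was formulated in acetone/DMF and diluted in water containing emulsifier.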

[5] = system: green peach aphid (Myzus persicae); experiment: Myzus persicae spray test; conditions: foliar, 120 h, Chinese cabbage leaf disks, after 5 days
Protocol: Myzus persicae—Spray Test
Solvent: 78.0 parts by weight acetone • 1.5 parts by weight dimethylformamide
(§1) Emulsifier: alkylarylpolyglycol ether
(§2) To produce a suitable preparation of active compound, 1 part by weight of active compound is mixed with the stated amount of solvents and is diluted with water, containing an emulsifier concentration of 1000 ppm, to the desired concentration. Further test concentrations are prepared by dilution with emulsifier containing water.
Chinese cabbage (Brassica pekinensis) leaf disks infected with all instars of the green peach aphid (Myzus persicae), are sprayed with a preparation of the active ingredient of the desired concentration.
After 5 days mortality in % is determined. 100% means all aphids have been killed and 0% means none of the aphids have been killed.

[6] = system: fall armyworm larvae (Spodoptera frugiperda); experiment: Spodoptera frugiperda spray test; conditions: 168 h, maize leaf sections, after 7 days
Summary of the method: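 Percent larval kill read at day 7, from 0% (no caterpillars dead) to 100% (all dead). Larvae were placed on dried Zea mays leaf discs previously sprayed with test preparations made from an acetone/DMF solution diluted in 1000 ppm emulsifier-containing water.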

[7] = system: adult brown dog ticks (Rhipicephalus sanguineus); experiment: Rhipicephalus sanguineus in-vitro contact test, adult brown dog ticks; conditions: 48 h, after 48 hours, read-out: efficacy (ticks dead or moribund); for pest or weed control at 5 µg/cm2, 500 g/ha: 5 μg/cm^2 (=500 g/ha); for pest or weed control at 1 µg/cm2, 100 g/ha: 1 μg/cm^2 (=100 g/ha)
Summary of the method: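 Acetone solution coated on glass tube inner walls (900 ppm, giving 5 μg/cm^2); after drying, 5–10 adult ticks added and kept 48 h at room temperature. Efficacy scored as percent dead or moribund, i.e., ticks unable to climb away on a 45–50 °C heating plate within 5 min.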

[8] = system: larvae of the southern green stink bug (Nezara viridula); experiment: Nezara viridula spray test; conditions: 96 h, 500 g/ha, barley plants, after 4 days
Protocol: Nezara viridula—Spray Test
(§3) Solvent: 78.0 parts by weight of acetone • • 1.5 parts by weight of dimethylformamide
as §1
as §2, with “solvent,” for “solvents”, “and the concentrate” for “and”
Barley plants (Hordeum vulgare) infested with larvae of the southern green stink bug (Nezara viridula) are sprayed with a test solution containing the desired concentration of the active ingredient.
After 4 days mortality in % is determined. 100% means all the stink bugs have been killed; 0% means none of the stink bugs have been killed.

[9] = system: brown planthopper (Nilaparvata lugens); experiment: Nilaparvata lugens spray test; conditions: 96 h, 500 g/ha, rice plants, after 4 days
Protocol: Nilaparvata lugens—Spray Test
as §3, §1, §2
Rice plants (Oryza sativa) are sprayed with a preparation of the active ingredient of the desired concentration and the plants are infested with the brown planthopper (Nilaparvata lugens).
After 4 days mortality in % is determined. 100% means all planthoppers have been killed and 0% means none of the planthoppers have been killed.

Structure (SMILES) | pest or weed control at 1 µg/cm2, 100 g/ha [1] [%] | pest or weed control at 5 µg/cm2, 500 g/ha [1] [%] | pest or weed control at 1 µg/cm2, 100 g/ha [2] [%] | pest or weed control at 5 µg/cm2, 500 g/ha [2] [%] | nematicidal activity (based on gall formation) [3] [%] | pest or weed control at 32 µg/disc, 100 g/ha [4] [%] | mortality at 100 g/ha [5] [%] | mortality at 100 g/ha [6] [%] | pest or weed control at 5 µg/cm2, 500 g/ha [7] [%] | pest or weed control at 6.4 µg/disc, 20 g/ha [4] [%] | mortality at 500 g/ha [8] [%] | mortality at 500 g/ha [9] [%] | pest or weed control at 1 µg/cm2, 100 g/ha [7] [%]
CC(NC(=O)c1cc(C(F)(F)F)cc(C(F)(F)F)c1)c1nccnc1-c1ncc(C#N)s1 (racemic) [Example I-82, (rac)-N-{1-[3-(5-Cyano-1,3-thiazol-2-yl)pyrazin-2-yl]ethyl}-3,5-bis(trifluoromethyl)benzamide] | 100 | 100 | 100 | 100 | 100 | 100 |  |  |  |  |  |  | 
CC(NC(=O)c1cc(C(F)(F)F)cc(C(F)(F)F)c1)c1nccnc1-c1ccc(C(=O)N(C)C)cn1 (racemic) [Example I-38, (rac)-6-(3-{1-[3,5-Bis(trifluoromethyl)benzamido]ethyl}pyrazin-2-yl)-N,N-dimethylpyridine-3-carboxamide] | 100 | 100 | 90 |  |  |  | 90 | 100 |  |  |  |  | 
CCN(C)C(=O)c1cnc(-c2nccnc2C(C)N(CC2CC2)C(=O)c2cc(C(F)(F)F)cc(C(F)(F)F)c2)s1 (racemic) [Example I-83, (rac)-2-{3-[1-{[3,5-Bis(trifluoromethyl)benzoyl](cyclopropylmethyl)amino}ethyl]pyrazin-2-yl}-N-ethyl-N-methyl-1,3-thiazole-5-carboxamide] | 100 | 100 | 100 | 100 |  | 100 |  | 100 | 80 | 100 | 100 | 100 | 
CC(NC(=O)c1cc(OC(F)(F)F)cc(S(C)(=O)=O)c1)c1nccnc1-c1ncc(C(=O)N(C)CC2CC2)s1 (racemic) [Example I-140, (rac)-N-(Cyclopropylmethyl)-2-(3-{1-[3-(methanesulfonyl)-5-(trifluoromethoxy)benzamido]ethyl}pyrazin-2-yl)-N-methyl-1,3-thiazole-5-carboxamide] |  |  |  | 90 |  |  |  | 100 |  |  |  | 100 | 
CC(NC(=O)c1cc(C(F)F)cc(C(F)F)c1)c1nccnc1-c1ncc(C(=O)N(C)CC2CC2)s1 (racemic) [Example I-141, (rac)-2-(3-{1-[3,5-Bis(difluoromethyl)benzamido]ethyl}pyrazin-2-yl)-N-(cyclopropylmethyl)-N-methyl-1,3-thiazole-5-carboxamide] | 100 | 90 |  | 100 |  | 100 |  | 100 |  |  | 100 | 100 | 
CC(NC(=O)c1cc(Br)cc(OC(F)(F)F)c1)c1nccnc1-n1cc(C(=O)N(C)CC2CC2)cn1 (racemic) [Example I-134, (rac)-1-(3-{1-[3-Bromo-5-(trifluoromethoxy)benzamido]ethyl}pyrazin-2-yl)-N-(cyclopropylmethyl)-N-methyl-1H-pyrazole-4-carboxamide] | 100 | 100 | 80 | 100 |  | 100 |  | 100 | 100 | 100 | 100 | 100 | 100
CCN(CC)C(=O)c1ccc(-c2nccnc2C(C)NC(=O)c2cc(C(F)(F)F)cc(C(F)(F)F)c2)nc1 (single isomer, unassigned) [Example I-160, 6-(3-{1-[3,5-Bis(trifluoromethyl)benzamido]ethyl}pyrazin-2-yl)-N,N-diethylpyridine-3-carboxamide] |  |  |  |  |  |  | 90 | 100 |  |  |  |  | 
CC(NC(=O)c1cc(C(F)(F)F)cc(C(F)(F)F)c1)c1nccnc1-c1ccc(C(=O)N(C)CC2CC2)cn1 (single isomer, unassigned) [Example I-164, 6-(3-{1-[3,5-Bis(trifluoromethyl)benzamido]ethyl}pyrazin-2-yl)-N-(cyclopropylmethyl)-N-methylpyridine-3-carboxamide] |  |  |  |  |  |  | 90 | 100 |  |  |  |  | 
CC(NC(=O)c1cc(Cl)cc(OC(F)(F)F)c1)c1nccnc1-c1nccs1 (racemic) [Example I-52, (rac)-3-Chloro-N-{1-[3-(1,3-thiazol-2-yl)pyrazin-2-yl]ethyl}-5-(trifluoromethoxy)benzamide] |  |  |  |  | 90 | 100 |  |  |  | 100 |  |  | 
CC(NC(=O)c1cc(C(F)(F)F)cc(C(F)(F)F)c1)c1nccnc1-c1ccc(C(=O)N2C[C@@H](C)O[C@@H](C)C2)cn1 (single isomer, unassigned) [Example I-166, N-[1-(3-{5-[(cis)-2,6-Dimethylmorpholine-4-carbonyl]pyridin-2-yl}pyrazin-2-yl)ethyl]-3,5-bis(trifluoromethyl)benzamide] |  |  |  |  |  |  | 90 | 100 |  |  |  |  | 
CC(NC(=O)c1cc(C(F)(F)F)cc(C(F)(F)F)c1)c1nccnc1-n1cc(C(=O)N(C)C)cn1 (racemic) [Example I-88, (rac)-1-(3-{1-[3,5-Bis(trifluoromethyl)benzamido]ethyl}pyrazin-2-yl)-N,N-dimethyl-1H-pyrazole-4-carboxamide] | 100 | 100 |  |  |  | 100 | 90 | 100 |  | 100 |  |  | 
CC(NC(=O)c1cc(Cl)cc(C(F)(F)F)c1)c1nccnc1-n1cc(C(=O)N(C)CC2CC2)cn1 (racemic) [Example I-132, (rac)-1-(3-{1-[3-Chloro-5-(trifluoromethyl)benzamido]ethyl}pyrazin-2-yl)-N-(cyclopropylmethyl)-N-methyl-1H-pyrazole-4-carboxamide] | 100 | 100 | 100 | 100 |  | 100 |  | 100 | 100 | 100 | 100 | 100 | 100

— patent publication US12583851B2, “Heteroaryl-substituted pyrazine derivatives as pesticides” (Elanco Animal Health GmbH, priority 2019, dated 2026)
